What was measured:
[1] = system: P. falciparum male gametocytes; experiment: P. falciparum Dual Gamete Formation Assay (PfDGFA), male readout (exflagellation); type: cell-based, Plasmodium falciparum NF54; settings: for Average inhibition male (%): average of replicates; for % inhibition male (individual replicates) R1: replicate R1; for % inhibition male (individual replicates) R3: replicate R3; for % inhibition male (individual replicates) R4: replicate R4; for Activity: hit = >50% inhibition in male or female readout in at least 3 replicates, 0 = no class assigned
Method: P. falciparum NF54 (originally isolated from an imported malaria case in the Netherlands in the 1980s; BEI Resources, cat. No. MRA-1000) strain asexual parasites were maintained between 0.3–5% parasitaemia by regular passage in complete culture medium (RPMI supplemented with 25 mM HEPES, 50 μg ml^−1 hypoxanthine, 4.8 g l^−1 NaHCO3, 2mM L-glutamine, 5% pooled type AB serum, 0.5% Albumax II (Gibco)) at 4% haematocrit in washed whole blood (National Blood and Transfusion Service or Centro de Transfusiones de la Comunidad de Madrid CTCM) under a 1% O2/3% CO2/96% N2 environment. Gametocytes were induced by seeding culture flasks at 2% parasitaemia/4% haematocrit and subjecting them to daily medium changes for 14 days whilst maintaining a temperature of 37°C at all times. On Day 14, the maturity of gametocytes was assessed by quantifying male gametogenesis (exflagellation). A 20 μl sample of gametocyte culture was mixed with equal volume of ookinete medium (complete culture medium supplemented with 0.1 μM xanthurenic acid) at room temperature and transferred to a haemocytometer. After 20 min at room temperature, exflagellation was accurately quantified as described in Delves et al. 2016 [17].
The Pf DGFA was performed as described in Delves et al. 2016 [17]. […] Plates were then incubated for 24 h at 37°C in a humidified box under a 1% O2/3% CO2/96% N2 gas mix. Gametogenesis was triggered by addition of 10 μl per well of ookinete medium + 0.27 μg ml^-1 Cy3-labelled anti-Pfs25 antibody. Plates were incubated on a metal block at 4°C for 4 min to ensure even cooling, then 28°C for a further 4 min. Exflagellation was recorded by capturing 10 frames over 1 s under brightfield illumination using a x4 objective with a 1.5x zoom (effectively x6) attached to an automated Nikon Ti fluorescence microscope. After recording exflagellation, plates were incubated for a further 24 h in the dark at 28°C to ensure maximal expression of Pfs25 by female gametes. The plates were then returned to the microscope and female gametes imaged at x6 using fluorescence microscopy.
Exflagellation centres and female gametes were quantified using custom image analysis pipelines developed within ICY Bioimage Analysis (https://icy.bioimageanalysis.org/).

[2] = system: P. falciparum female gametocytes; experiment: P. falciparum Dual Gamete Formation Assay (PfDGFA), female readout (Pfs25-positive female gametes); type: cell-based, Plasmodium falciparum NF54; settings: for Average inhibition female (%): average of replicates; for % inhibition female (individual replicates) R1: replicate R1; for % inhibition female (individual replicates) R3: replicate R3; for % inhibition female (individual replicates) R4: replicate R4
In short: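 Male and female gamete formation were quantified by microscopy image analysis following 24 h incubation of mature NF54 gametocytes with compound and activation at 28°C with xanthurenic acid.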

[3] = 2µM, 24h preincubation with gametocytes prior to induction of gametogenesis
[4] = 2µM, 24h preincubation, hits selected on >50% inhibition in the male readout across replicates
[5] = PfDGFA at 2µM, 24h preincubation
[6] = 2µM, 24h preincubation, hits selected on >50% inhibition in the female readout across replicates
[7] = PfDGFA at 2µM, 24h preincubation with gametocytes
[8] = number of replicates with >50% inhibition in the male readout, 2µM
[9] = number of replicates with >50% inhibition in the female readout, 2µM
[10] = 2µM, 24h preincubation, number of replicates with >50% inhibition in the male readout
[11] = 2µM, 24h preincubation, number of replicates with >50% inhibition in the female readout
[12] = PfDGFA at 2µM, 24h preincubation with gametocytes prior to induction of gametogenesis

Row | SMILES | Average inhibition male (%) [1, 3] [%] | % inhibition male (individual replicates) R1 [1, 3] [%] | % inhibition male (individual replicates) R3 [1, 3] [%] | % inhibition male (individual replicates) R4 [1, 3] [%] | HitlevelM [1, 4] | Activity [1, 5] | Average inhibition female (%) [2, 3] [%] | % inhibition female (individual replicates) R1 [2, 3] [%] | % inhibition female (individual replicates) R3 [2, 3] [%] | % inhibition female (individual replicates) R4 [2, 3] [%] | HitlevelF [2, 6] | HitlevelM [1, 10] | HitlevelF [2, 11] | also measured
1 | CN1CCC(NCc2ccc(-c3cccc(S(=O)(=O)NCc4ccccc4)c3)cc2)CC1.O=C(O)C(F)(F)F [TCMDC-132238] | 25.7 | 17.7 | -3.8 | 50.9 | 1 | 0 | 15.2 | 18.5 | -4.9 | 24.5 | 0 |  |  | 
2 | O=C(O)C(F)(F)F.O=S(=O)(NCCN1CCCC1)c1cccc(-c2ccc(CNC3Cc4ccccc4C3)cc2)c1 [TCMDC-132241] | -1.0 | 15.7 | -7.3 | -2.5 | 0 | 0 | 16.9 | 23.8 | 3.4 | 2.0 | 0 |  |  | 
3 | COc1ccc(CNC2CCN(C)CC2)cc1-c1ccc(S(=O)(=O)NCc2ccccc2)cc1.O=C(O)C(F)(F)F [TCMDC-132244] |  |  |  |  |  |  |  |  |  |  |  |  |  | Average inhibition male (%) [1, 7]: 63.1%; % inhibition male (individual replicates) R1 [1, 7]: 62.4%; % inhibition male (individual replicates) R3 [1, 7]: 51.6%; % inhibition male (individual replicates) R4 [1, 7]: 78.9%; HitlevelM [1, 8]: 4; Average inhibition female (%) [2, 7]: 25.2%; % inhibition female (individual replicates) R1 [2, 7]: 21.6%; % inhibition female (individual replicates) R3 [2, 7]: 8.8%; % inhibition female (individual replicates) R4 [2, 7]: 45.4%; HitlevelF [2, 9]: 0
4 | COc1ccc(CNC2CCN(C)CC2)cc1-c1ccc(S(=O)(=O)NC2CCC2)cc1.O=C(O)C(F)(F)F [TCMDC-132245] | 51.4 | 59.0 | 27.2 | 60.2 |  |  | 10.6 | 7.8 | -17.0 | 30.9 |  | 3 | 0 | 
5 | COc1ccc(CNC2Cc3ccccc3C2)cc1-c1ccc(OC)c(S(=O)(=O)NCCN2CCCC2)c1.O=C(O)C(F)(F)F [TCMDC-132251] | -9.5 | -12.6 | -24.0 | 8.2 |  |  | 36.3 | 26.7 | 26.1 | 31.1 |  | 0 | 1 | 
6 | COc1ccc(CNC2CCN(C)CC2)cc1-c1ccc(S(=O)(=O)NC2CCC2)s1.O=C(O)C(F)(F)F [TCMDC-132254] | 56.3 | 57.2 |  | 49.8 | 2 | 0 | 16.7 | 16.7 | 22.1 | 14.8 | 0 |  |  | 
7 | COc1ccc(CNC2CCN(C)CC2)cc1-c1cccc(S(=O)(=O)NCc2ccccc2)c1.O=C(O)C(F)(F)F [TCMDC-132267] |  |  |  |  |  |  |  |  |  |  |  |  |  | Average inhibition male (%) [1, 7]: 67.3%; % inhibition male (individual replicates) R1 [1, 7]: 62.4%; % inhibition male (individual replicates) R3 [1, 7]: 55.8%; % inhibition male (individual replicates) R4 [1, 7]: 79.6%; HitlevelM [1, 8]: 4; Average inhibition female (%) [2, 7]: 16.9%; % inhibition female (individual replicates) R1 [2, 7]: 27.9%; % inhibition female (individual replicates) R3 [2, 7]: 4.5%; % inhibition female (individual replicates) R4 [2, 7]: 10.9%; HitlevelF [2, 9]: 0
8 | COc1ccc(CNC2Cc3ccccc3C2)cc1-c1cccc(S(=O)(=O)NCCN2CCCC2)c1.O=C(O)C(F)(F)F [TCMDC-132269] | 7.0 | 7.1 | -13.3 | 18.2 |  |  | 23.4 | 14.9 | -7.5 | 55.1 |  | 0 | 1 | 
9 | COc1ccc(CNCc2ccc(F)cc2)cc1-c1ccc(S(=O)(=O)NCCN2CCCC2)cc1.O=C(O)C(F)(F)F [TCMDC-132294] | -4.3 | -26.4 |  | 1.5 |  |  | 26.6 | 28.2 | 29.3 | 24.2 |  | 0 | 0 | 
10 | Cl.N[C@@H](CCNC1CCN(c2cccc(C(F)(F)F)c2)CC1)Cc1ccc(F)c(F)c1 [TCMDC-132301] | 53.1 | 61.1 | 44.2 | 79.6 |  |  | 52.8 | 47.6 | 42.6 | 73.6 |  | 2 | 1 | 
11 | CC(O)C1CCCCN1C(=O)c1ccc(-c2ccc(-c3nc4ccccc4[nH]3)s2)cc1 (centres unmarked) [TCMDC-132330] |  |  |  |  |  |  |  |  |  |  |  |  |  | % inhibition male (individual replicates) R1 [1, 12]: 10.5%; % inhibition male (individual replicates) R3 [1, 12]: 7.6%; % inhibition male (individual replicates) R4 [1, 12]: 19.6%; Average inhibition male (%) [1, 5]: 14.0%; % inhibition female (individual replicates) R1 [2, 12]: 7.4%; % inhibition female (individual replicates) R3 [2, 12]: -27.3%; % inhibition female (individual replicates) R4 [2, 12]: 14.9%; Average inhibition female (%) [2, 5]: -1.0%
12 | CN(C)Cc1ccc(-c2ccc(NC(=O)c3ccc4c(=O)n(Cc5ccccc5)cnc4c3)cc2)cc1 [TCMDC-132361] | 62.7 | 57.2 |  | 53.6 |  |  | 36.5 | 37.4 | 28.0 | 35.8 |  | 3 | 0 | 
13 | COc1ccc(-c2cccc(CNC3CCN(C)CC3)c2)cc1S(=O)(=O)NCc1ccccc1.O=C(O)C(F)(F)F [TCMDC-132375] | 31.3 | 25.4 | 11.7 | 56.9 | 1 | 0 | 14.0 | 15.7 | 4.8 | 20.5 | 0 |  |  | 
14 | Cc1cc(-c2cccc(CNC3CCN(C)CC3)c2)ccc1S(=O)(=O)NCc1ccccc1.O=C(O)C(F)(F)F [TCMDC-132379] | 43.8 | 43.1 | 25.4 | 55.6 | 2 | 0 | 17.5 | 20.6 | 25.5 | -4.5 | 0 |  |  | 

From publication PMC10584170, “Machine learning-based phenotypic imaging to characterise the targetable biology of Plasmodium falciparum male gametocytes for the development of transmission-blocking antimalarials” (PLOS Pathogens, 2023)
